{"source": "patent US9486457B2", "about": "“Use of cinnabarinic acid as a modulator of immune responses in autoimmune disorders” (The Regents of the University of California, priority 2010, dated 2016)", "key": {"[1]": {"target": "T1, AHR (Mus musculus, UniProt P30561)", "T1 construct": "murine hepatoma cell line stably transfected with an AhR-responsive (AhR-eGFP) reporter construct; endogenous in cells", "T1 sequence (P30561 10-848)": "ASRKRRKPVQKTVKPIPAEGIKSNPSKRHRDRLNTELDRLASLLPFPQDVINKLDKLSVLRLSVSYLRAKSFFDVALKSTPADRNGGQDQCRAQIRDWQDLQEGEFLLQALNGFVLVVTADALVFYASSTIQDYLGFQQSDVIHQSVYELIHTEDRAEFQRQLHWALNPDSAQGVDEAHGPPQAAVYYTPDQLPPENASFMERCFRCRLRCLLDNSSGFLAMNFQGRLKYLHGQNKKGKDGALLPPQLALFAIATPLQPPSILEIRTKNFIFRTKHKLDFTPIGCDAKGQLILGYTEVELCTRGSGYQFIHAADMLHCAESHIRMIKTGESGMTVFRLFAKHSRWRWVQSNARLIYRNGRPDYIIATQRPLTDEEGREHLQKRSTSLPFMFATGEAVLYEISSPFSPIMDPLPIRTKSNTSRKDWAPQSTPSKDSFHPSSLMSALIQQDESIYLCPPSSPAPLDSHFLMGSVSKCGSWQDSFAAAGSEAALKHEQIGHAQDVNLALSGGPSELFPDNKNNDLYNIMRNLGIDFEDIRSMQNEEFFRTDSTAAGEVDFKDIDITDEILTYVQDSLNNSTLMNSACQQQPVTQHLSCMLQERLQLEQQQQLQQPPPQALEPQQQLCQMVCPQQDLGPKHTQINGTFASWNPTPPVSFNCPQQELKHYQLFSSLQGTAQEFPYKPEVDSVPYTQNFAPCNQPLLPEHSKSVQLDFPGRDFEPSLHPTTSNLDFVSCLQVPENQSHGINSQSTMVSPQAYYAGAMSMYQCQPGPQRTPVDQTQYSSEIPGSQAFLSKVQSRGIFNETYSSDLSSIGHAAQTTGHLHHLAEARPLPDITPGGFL", "assay": "AHR-responsive (dioxin responsive element) GFP reporter assay in H1G1 mouse hepatoma cells", "format": "cell-based", "settings": "for AHR agonist activity (activation of AHR-responsive reporter): agonist mode; for AHR antagonist activity (block of AHR activation by TCDD): antagonist mode, co-treatment with TCDD, H1G1 cells", "source_text": "(§1) We performed a precursory screen of all tryptophan metabolites including both 3-HKA and 3-HAA to bind to and act as agonists or antagonists of the AHR using two separate assays. First we examined the ability of 3-HKyn, 3-HAA, and PA to displace TCDD binding to the human AHR protein in vitro (20). […] We also measured AHR activation using a mouse hepatoma cell line (H1G1) that stably expresses a green fluorescent protein (GFP) reporter construct downstream of a series of dioxin responsive elements (FIG. 7A) (21)."}, "[2]": {"target": "T2, human AHR protein (Homo sapiens, UniProt P35869)", "T2 sequence (P35869 11-848)": "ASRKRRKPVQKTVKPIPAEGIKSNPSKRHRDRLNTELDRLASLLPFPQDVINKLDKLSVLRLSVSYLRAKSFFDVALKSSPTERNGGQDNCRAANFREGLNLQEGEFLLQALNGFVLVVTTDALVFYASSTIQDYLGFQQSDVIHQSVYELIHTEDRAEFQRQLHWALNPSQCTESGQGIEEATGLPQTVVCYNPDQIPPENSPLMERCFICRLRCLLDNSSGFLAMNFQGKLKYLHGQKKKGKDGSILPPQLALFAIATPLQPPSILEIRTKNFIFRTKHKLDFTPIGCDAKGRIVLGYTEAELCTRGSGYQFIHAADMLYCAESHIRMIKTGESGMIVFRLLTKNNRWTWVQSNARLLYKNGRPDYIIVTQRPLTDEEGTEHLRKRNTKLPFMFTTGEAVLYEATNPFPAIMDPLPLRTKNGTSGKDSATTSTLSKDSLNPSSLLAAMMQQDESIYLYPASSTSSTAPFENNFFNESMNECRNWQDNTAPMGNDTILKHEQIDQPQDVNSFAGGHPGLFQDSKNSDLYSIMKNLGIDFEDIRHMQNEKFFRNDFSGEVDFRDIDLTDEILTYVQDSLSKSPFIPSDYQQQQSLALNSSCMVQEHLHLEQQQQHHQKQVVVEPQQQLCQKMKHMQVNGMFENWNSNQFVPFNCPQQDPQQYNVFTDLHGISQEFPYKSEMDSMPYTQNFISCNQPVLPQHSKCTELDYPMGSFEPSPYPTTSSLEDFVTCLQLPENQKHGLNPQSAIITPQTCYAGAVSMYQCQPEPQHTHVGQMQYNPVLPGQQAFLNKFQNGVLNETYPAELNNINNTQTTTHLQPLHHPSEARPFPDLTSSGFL", "assay": "Displacement of TCDD binding to in vitro translated human AHR protein", "settings": "cell-free", "source_text": "as §1"}, "[3]": {"tested_on": "stimulated human CD4+ T cells", "assay": "IL-22 expression by CD4+ T cells in stimulated human PBMCs / T cells", "format": "cell-based", "settings": "for IL-22 expression by CD4+ T cells (Th22 differentiation): stimulated human PBMCs / T cells, 100 μM for 3-HKyn and 3-HAA in FIG. 6A", "source_text": "FIG. 6: 3-HKyn and 3-HAA promote IL-22 expression by stimulated human CD4+ T cells. […] (C) IL-22 induction by 3-HAA is blocked by inhibition of the AhR pathway.\nThis is highlighted by the observation that AHR−/− mice retain the ability to generate some Th17 cells, but are incapable of generating cells that express IL-22 (16-18). […] To screen for the ability of tryptophan metabolites generated downstream of IDO to activate the AHR, we stimulated human T cells in vitro in the presence of different tryptophan metabolites (3-Hydroxykynurenine (3-HKA), 3-Hydroxyanthranilic Acid (3-HAA), Picolinic Acid (PA), and Quinolinic Acid (QA)) to assess whether any promoted the expansion of CD4+ T cells secreting IL-22. […] To determine whether the induction of IL-22 within this population was dependent upon AHR activation, we next stimulated human T cells in the presence or absence of a potent AHR antagonist (CH-223191) and monitored the induction of IL-22."}, "[4]": {"tested_on": "human naïve CD4+ T cells", "assay": "IL-22 induction in cultured human naïve CD4+ T cells stimulated with anti-CD3/anti-CD28 under Th17 polarizing conditions", "format": "cell-based", "settings": "CA 25 μM in FIG. 8D", "source_text": "This is AHR dependent as inclusion of an AHR antagonist fully abrogated effect.\nFIG. 8: CA is an endogenous AhR agonist generated by oxidative dimerization of 3-HAA. (A) An alternative pathway of 3-HAA metabolism leads to the generation of CA either by non-enzymatic (oxidation) or enzymatic (laccase, ceruloplasmin) processes. CA is structurally similar to the synthetic AhR ligand TCDD. […] Data are representative of three similar experiments."}, "[5]": {"tested_on": "naïve (CD45RA+CCR7+CD95−CD25−) CD4+ T cells", "assay": "Foxp3 induction in stimulated naïve CD4+ T cells", "format": "cell-based, human", "source_text": "FIG. 9: The synthetic 3-HAA analogue 3,4 DAA (Tranilast) is an AhR antagonist and promotes the induction of Foxp3 by stimulated CD4+ T cells. (A) 3,4 DAA shares some structural similarities to 3-HAA (highlighted region).\nTherefore we asked whether T cells treated with 3,4 DAA might be prompted to differentiate into Treg cells through upregulation of the transcription factor Foxp3 (26)."}, "[6]": {"tested_on": "experimental allergic encephalomyelitis (EAE)", "settings": "literature reports (refs 15, 25 as cited in text); cited from earlier work"}, "[7]": {"tested_on": "stimulated human CD4+ T cells", "settings": "literature (ref 19); cited from earlier work"}}, "note": "Entries after “also recorded” stand apart in the source; their conditions may differ.", "data": [{"smiles": "Nc1c(O)cccc1C(=O)O", "note": "[3-HAA, 3-Hydroxyanthranilic Acid]", "values": [{"measurement": "AHR agonist activity (activation of AHR-responsive reporter)", "setting": "[1]", "value": "modest increase in AHR activity using 3-HAA as an agonist, this failed to reach significance; also recorded: minimal activation of the AhR; also recorded: no activity in short-term assays"}, {"measurement": "displacement / inhibition of TCDD binding to human AHR", "setting": "[2]", "value": "modest binding of 3-HAA only at very high concentrations"}, {"measurement": "expansion of Th22 cells", "setting": "[3]; different donors", "value": "≥ 2", "unit": "fold"}, {"measurement": "IL-22 expression by CD4+ T cells (Th22 differentiation)", "setting": "[3]", "value": "able to promote the differentiation of Th22 cells; also recorded: leads to the expansion of a population of cells expression the cytokine IL-22; also recorded: promotes IL-22 expression in dose-dependent manner"}, {"measurement": "IL-22 induction", "setting": "[4]", "value": "only had minimal effects"}, {"measurement": "Foxp3 expression (frequency of CD4+Foxp3+ T cells)", "setting": "[5]; stimulated naïve CD4+ T cells in vitro", "value": "promotes Foxp3 upregulation but to a lesser extent"}]}, {"smiles": "Nc1c(O)cccc1C(=O)CC(N)C(=O)O", "note": "(stereo not shown) [3-HKyn, 3-Hydroxykynurenine]", "values": [{"measurement": "AHR agonist activity (activation of AHR-responsive reporter)", "setting": "[1]", "value": "none of the other metabolites (3-HKyn, PA, QA) were found to have any activity as agonists or antagonists"}, {"measurement": "AHR antagonist activity (block of AHR activation by TCDD)", "setting": "[1]", "value": "none of the other metabolites (3-HKyn, PA, QA) were found to have any activity as agonists or antagonists"}, {"measurement": "displacement / inhibition of TCDD binding to human AHR", "setting": "[2]", "value": "unable to measure any significant displacement"}, {"measurement": "IL-22 expression by CD4+ T cells (Th22 differentiation)", "setting": "[3]", "value": "leads to the expansion of a population of cells expression the cytokine IL-22"}, {"measurement": "IL-22 expression by CD4+ T cells (Th22 differentiation)", "setting": "[3]; listed as 3-HKA", "value": "able to promote the differentiation of Th22 cells"}]}, {"smiles": "Nc1c(C(=O)O)ccc(F)c1O", "note": "[4-F-3-HAA, 4-fluoro-3-hydroxythranilic acid]", "values": [{"measurement": "effect of HAAO inhibition on the ability of 3-HAA to induce IL-22", "setting": "[3]; in the presence of different concentrations of 3-HAA", "value": "stark increase in the ability of 3-HAA to induce IL-22"}]}, {"smiles": "Cc1ccccc1N=Nc1ccc(NC(=O)c2ccnn2C)c(C)c1", "note": "[CH-223191]", "values": [{"measurement": "AHR antagonist activity (block of AHR activation by TCDD)", "setting": "[1]", "value": "potent antagonist"}, {"measurement": "AHR antagonist activity (block of AHR activation by TCDD)", "setting": "[1]; listed as CH223191", "value": "positive control"}, {"measurement": "block of IL-22 induction by 3-HAA", "setting": "[3]; AHR antagonist added with 3-HAA", "value": "significantly abolish IL-22 induction by 3-HAA"}]}, {"smiles": "O=Cc1c2c(cc3c1=Nc1ccccc1-3)=Nc1ccccc1-2", "note": "[FICZ, 6-formylindolo[3,2-b]carbazole]", "values": [{"measurement": "effect on EAE as previously reported", "setting": "[6]", "value": "increased disease severity"}, {"measurement": "frequency of CD4+ T cells that produce IL-22 (Th22), as previously reported", "setting": "[7]", "value": "promoted a significant increase in the frequency of CD4+ T cells that produced IL-22"}]}, {"smiles": "O=C(O)c1ccccn1", "note": "[PA, Picolinic Acid]", "values": [{"measurement": "AHR agonist activity (activation of AHR-responsive reporter)", "setting": "[1]", "value": "none of the other metabolites (3-HKyn, PA, QA) were found to have any activity as agonists or antagonists"}, {"measurement": "AHR antagonist activity (block of AHR activation by TCDD)", "setting": "[1]", "value": "none of the other metabolites (3-HKyn, PA, QA) were found to have any activity as agonists or antagonists"}, {"measurement": "displacement / inhibition of TCDD binding to human AHR", "setting": "[2]", "value": "unable to measure any significant displacement"}]}, {"smiles": "O=C(O)c1cccnc1C(=O)O", "note": "[QA, Quinolinic Acid]", "values": [{"measurement": "AHR agonist activity (activation of AHR-responsive reporter)", "setting": "[1]", "value": "none of the other metabolites (3-HKyn, PA, QA) were found to have any activity as agonists or antagonists"}, {"measurement": "AHR antagonist activity (block of AHR activation by TCDD)", "setting": "[1]", "value": "none of the other metabolites (3-HKyn, PA, QA) were found to have any activity as agonists or antagonists"}]}, {"smiles": "NC(=O)c1ccc(-c2nc(-c3ccc4c(c3)OCO4)c(-c3ccccn3)[nH]2)cc1", "note": "[SB-431542]", "values": [{"measurement": "reversal of Foxp3 upregulation by 3,4 DAA and 3-HAA", "setting": "[5]; TGFβ signaling inhibitor added", "value": "reversed the ability of 3,4 DAA and 3-HAA to upregulate Foxp3"}]}, {"smiles": "Clc1cc2c(cc1Cl)Oc1cc(Cl)c(Cl)cc1O2", "note": "[TCDD, 2,3,7,8-tetrachlorodibenzodioxin]", "values": [{"measurement": "effect on EAE as previously reported", "setting": "[6]", "value": "protective"}]}, {"smiles": "NCCc1c[nH]c2ccccc12", "note": "[Tryptamine, tryptamine]", "values": [{"measurement": "AHR agonist activity (activation of AHR-responsive reporter)", "setting": "[1]", "value": "positive control"}]}]}
